Reference: patent US9085550B2, “Ligands for estrogen related receptors and methods for synthesis of said ligands” (CITY OF HOPE, priority 2005, dated 2015)

Legend:
ERR = assay: GAL4-ERR reporter assay in CV-1 cells, potency with versus without PGC-1a; type: cell-based; conditions: activated ERR at lower doses in the presence of PGC-1a
Procedure: Additional compounds were tested for their effects on ERR activation (Tables 3-6). DY159, DY162, DY163 and DY164 as well as DY131 can activate all three ERRs (ERRα/β/γ) in the presence of PGC-1a. […] Therefore, these compounds have two novel features yet to be reported: a) they are selective ERR modulators or coactivator-selective ligands, i.e., they activate ERR better in the presence of PGC-1a then the other coactivators that are normally present in CV-1 cells; and b) these are the first synthetic compounds reported to ACTIVATE ERRα. Previously reported compounds repress the constitutive activity of ERRα (see Willy et al., supra).
Referring to Tables 1-6, cell based transactivation assays were performed in CV-1 cells as described. See Wang, H., Chen, J., Hollister, K., Sowers, L. C., Forman, B. M., Endogenous bile acids are ligands for the nuclear receptor FXR/BAR, Mol Cell 1999, 3, 543-553. ERR activity was assayed with a GAL4 reporter construct and fusion proteins containing the ligand binding domains of human ERRα, human ERR β and mouse ERRγ linked to the DNA binding domain of yeast GAL4. Human ERα and ERβ were examined as full-length proteins using an estrogen receptor responsive reporter construct.
To test the effect of the compounds on ERR and ER, CV-1 cells were transiently transfected with expression vectors for the receptors along with appropriate reporter constructs according to methods known in the art. The receptors to be tested were expressed in CV-1 cells. Suitable reporter gene constructs are well known to skilled workers in the fields of biochemistry and molecular biology. All transfections additionally contained an expression vector with a cytomegalovirus promoter (pCMV-β-gal) as an internal control. Suitable constructs for use in these studies may conveniently be cloned into a cytomegalovirus expression vector (pCMV). For example, pCMV-β-gal contains the E. coli β-galactosidase gene expressed under control of the cytomegalovirus promoter/enhancer. Other vectors known in the art can be used in the methods of the present invention. […]

[1] = test system: estrogen receptor responsive reporter construct; assay: Estrogen receptor responsive reporter in CV-1 cells without receptor (control of Table 1); type: cell-based; conditions: Table 1 second block
Procedure: Human ERα and ERβ were examined as full-length proteins using an estrogen receptor responsive reporter construct.
Suitable reporter gene constructs are well known to skilled workers in the fields of biochemistry and molecular biology. […] Other vectors known in the art can be used in the methods of the present invention.
CV-1 cells for the activation assays were grown in Dulbecco's modified Eagle's medium supplemented with 10% resin charcoal-stripped fetal bovine serum, 50 U/ml penicillin G and 50 μg/ml streptomycin sulfate (DMEM-FBS) at 37° C. in 5% CO2. One day prior to transfection, cells were plated to 50-80% confluence using phenol red free DMEM-FBS.

[2] = biological target: T1, HRHN-GAL (yeast GAL4 DNA binding domain without receptor sequences) (Saccharomyces cerevisiae, UniProt P04386); assay: GAL4 reporter transactivation assay in CV-1 cells, control vector without receptor; type: cell-based, monkey; conditions: for Fold activation, HRHN-GAL: reporter 0.42:vector 0.00875, no PGC-1a
T1 construct: expressed in transfected cells; host or cells: CV-1

[3] = reporter 0.42:vector 0.00875:PGC-1a 0.035, 0.3 μM
[4] = reporter 0.42:vector 0.00875:PGC-1a 0.035, 1 μM
[5] = reporter 0.42:vector 0.00875:PGC-1a 0.035, 3 μM (first 3 μM column)
[6] = reporter 0.42:vector 0.00875:PGC-1a 0.035, 3 μM (second 3 μM column)
[7] = reporter 0.42:vector 0.00875:PGC-1a 0.035, 10 μM
[8] = reporter 0.42:vector 0.00875:PGC-1a 0.035, 30 μM

T1 sequence (P04386 1-147): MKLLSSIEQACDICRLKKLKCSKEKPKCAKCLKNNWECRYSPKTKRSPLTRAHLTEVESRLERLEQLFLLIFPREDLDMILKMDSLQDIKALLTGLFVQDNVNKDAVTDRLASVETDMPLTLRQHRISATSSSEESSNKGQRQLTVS

| Structure (SMILES) | Potency of ERR activation with versus without PGC-1a (ERR) | Fold activation, Receptor — (second block) ([1]; 3 μM) [fold] | Fold activation, Receptor — (second block) ([1]; 10 μM) [fold] | Fold activation, Receptor — (second block) ([1]; 30 μM) [fold] | Fold activation, Receptor — (first block) ([2]; Table 1, reporter 0.42:receptor vector 0.035:PGC-1a 0.035, 3 μM) [fold] | Fold activation, Receptor — (first block) ([2]; Table 1, reporter 0.42:receptor vector 0.035:PGC-1a 0.035, 10 μM) [fold] | Fold activation, Receptor — (first block) ([2]; Table 1, reporter 0.42:receptor vector 0.035:PGC-1a 0.035, 30 μM) [fold] | Fold activation, HRHN-GAL ([2]; 0.3 μM) [fold] | Fold activation, HRHN-GAL ([2]; 1 μM) [fold] | Fold activation, HRHN-GAL ([2]; 3 μM (first 3 μM column)) [fold] | Fold activation, HRHN-GAL ([2]; 3 μM (second 3 μM column)) [fold] | Fold activation, HRHN-GAL ([2]; 10 μM) [fold] | Fold activation, HRHN-GAL ([2]; 30 μM) [fold] | Fold activation, HRHN-GAL + PGC-1a [2, 3] [fold] | Fold activation, HRHN-GAL + PGC-1a [2, 4] [fold] | Fold activation, HRHN-GAL + PGC-1a [2, 5] [fold] | Fold activation, HRHN-GAL + PGC-1a [2, 6] [fold] | Fold activation, HRHN-GAL + PGC-1a [2, 7] [fold] | Fold activation, HRHN-GAL + PGC-1a [2, 8] [fold] | melting point [°C] |
| --- | --- | --- | --- | --- | --- | --- | --- | --- | --- | --- | --- | --- | --- | --- | --- | --- | --- | --- | --- | --- |
| CCN(CC)c1ccc(C=NNC(=O)c2ccc(O)cc2)cc1 [DY131, 4-Hydroxy-benzoic acid (4-diethylamino-benzylidene)-hydrazide] | more potent activators in the presence of PGC-1a than without | 1.0 | 1.1 | 1.0 | 0.8 | 0.7 | 0.9 | 1.03 | 0.94 | 0.74 | 0.74 | 0.77 | 0.79 | 1.00 | 0.65 | 0.72 | 1.09 | 0.69 | 0.81 | – |
| O=C(NN=Cc1ccccc1)c1ccc(O)cc1 [DY162, 4-Hydroxy-benzoic acid benzylidene-hydrazide] | more potent activators in the presence of PGC-1a than without | – | – | – | – | – | – | 1.14 | 1.07 | 1.02 | 1.12 | 1.26 | 1.25 | 1.26 | 1.17 | 1.13 | 1.97 | 1.68 | 1.93 | – |
| Cc1cccc(C=NNC(=O)c2ccc(O)cc2)c1 [DY159, 4-Hydroxy-benzoic acid (3-methyl-benzylidene)-hydrazide] | more potent activators in the presence of PGC-1a than without | – | – | – | – | – | – | – | 0.95 | 1.08 | 1.25 | 1.24 | 1.26 | – | 1.31 | 1.05 | 1.03 | 1.39 | 1.11 | 241.9 |
